The nature of data set [1]: Penetration study through human skin, Franz diffusion apparatus. The note with it: for reduction of penetration on addition, in words (compared with octanoic acid): Example 8. It is filed as in vitro ADME. From the text:
EtOH is ethanol. The term mcg=microgram.

The next data set concerns rats. The conditions noted are these: cited from earlier work.
For data set [2] the following is noted: clindamycin phosphate, erythromycin base, fusidate sodium, fluorouracil, desonide, amcinonide and triamcinolone acetonide; cited from earlier work.

With `CCCCCCCCCC(=O)O` [decanoic acid], in data set [1], the “reduction of penetration on addition, in words (compared with octanoic acid)” value (from here on “reduction … (compared with octanoic acid)”) is “Substantially similar results”. In the case of `CCCCCCCCCCCCN1CCCCCC1=O` [Azone, 1-dodecyl-azacycloheptan-2-one], in the data set with rats (rat, in vivo), the order of toxicity entry was “low order of toxicity”. Also, the “lethal dose for 50% survival (LD50)” value in the data set on rats (rats) was “about 8 g/kg”. Moreover, the “enhancement of cutaneous penetration” value in data set [2] is reported as “enhance the cutaneous penetration”.

As to `CCCCCCCCCCCCCCCCO` [cetyl alcohol], the “reduction … (compared with octanoic acid)” value in data set [1] is “Substantially similar results”.

Take `CCCCCCCC(=O)O` [octanoic acid]: in data set [1] (Example 8, 0-72 hrs, 4% octanoic acid), the “reduction of penetration on addition to triamcinolone / propylene glycol / C14 OH composition” value turned out to be 50%. Turning to `CCCCCCCCCCCCCCCCCCO` [steryl alcohol], in data set [1], the “reduction … (compared with octanoic acid)” value is “Substantially similar results”.

The record behind these values is patent US4557934A, “Penetrating topical pharmaceutical compositions containing 1-dodecyl-azacycloheptan-2-one” (priority 1983, dated 1985).
